Data as given in ChEMBL document CHEMBL1201862, “PubChem BioAssay data set” (2004).
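How tested: cells in 96-well plates exposed to compound for 48 hours at five concentrations. GI50 is the concentration that inhibits growth by half.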 The source made the active and inactive calls. Cut-off read from the data, not from the text of the source: active = GI50 up to about 1.1 µM and inactive = higher.

How the values were obtained:
Test in all cases: DTP human tumour cell line panel, 48 h
[1] = system: SK-OV-3
[2] = system: ACHN
[3] = system: MDA-MB-435
[4] = system: KM12
[5] = system: NCI/ADR-RES
[6] = system: NCI-H522
[7] = system: HCT-15
[8] = system: A498
[9] = system: OVCAR-3
[10] = system: MOLT-4
[11] = system: SW-620
[12] = system: BT-549
[13] = system: SK-MEL-28
[14] = system: TK-10
[15] = system: SK-MEL-5
[16] = system: U-251
[17] = system: T47D
[18] = system: MDA-N

Row | Compound | GI50 [1] | GI50 [2] | GI50 [3] | GI50 [4] | GI50 [5] | GI50 [6] | GI50 [7] [µM] | GI50 [8] | GI50 [9] | GI50 [10] | GI50 [11] | GI50 [12] | GI50 [13] | GI50 [14] | GI50 [15] | GI50 [16] | GI50 [17] | GI50 [18]
1 | O=c1c(-c2ccccc2)c(SCCCN2CCN(c3cccc(Cl)c3)CC2)n(-c2ccccc2)c(=S)n1-c1ccccc1 | > 100 µM (inactive) | > 100 µM (inactive) | 16.8 µM (inactive) | 46.5 µM (inactive) | > 100 µM (inactive) | > 100 µM (inactive) | > 100 | > 100 µM (inactive) | > 100 µM (inactive) | > 100 µM (inactive) | > 100 µM (inactive) | > 100 µM (inactive) | > 100 µM (inactive) | > 100 µM (inactive) | > 100 µM (inactive) | > 100 µM (inactive) |  | 
2 | N=c1c2ccccc2nc2oc3cc([N+](=O)[O-])ccc3n12 | 17.9 µM (inactive) | 23.7 µM (inactive) | > 100 µM (inactive) | > 100 µM (inactive) | 18.6 µM (inactive) | 32.2 µM (inactive) | > 100 |  | 25.7 µM (inactive) | > 100 µM (inactive) | 61.1 µM (inactive) | 20.2 µM (inactive) | 74 µM (inactive) | 19.6 µM (inactive) | 71.6 µM (inactive) | 15.5 µM (inactive) | < 0.01 µM (active) | > 100 µM (inactive)
3 | CN1CCC2(CC1)C(=O)N(N1CCCCCC1)C(=O)N2c1ccccc1 | > 100 µM (inactive) | > 100 µM (inactive) | > 100 µM (inactive) | > 100 µM (inactive) | > 100 µM (inactive) | 57.7 µM (inactive) | > 100 | 34.7 µM (inactive) | > 100 µM (inactive) | > 100 µM (inactive) | > 100 µM (inactive) | > 100 µM (inactive) | > 100 µM (inactive) | > 100 µM (inactive) | > 100 µM (inactive) | > 100 µM (inactive) | > 100 µM (inactive) | > 100 µM (inactive)
4 | O=c1c(C(c2ccc3ccccc3c2)c2c(O)oc3cc(O)ccc3c2=O)c(O)oc2cc(O)ccc12 | > 100 µM (inactive) |  | 46 µM (inactive) | 30.6 µM (inactive) | > 100 µM (inactive) | 50.8 µM (inactive) | > 100 | > 100 µM (inactive) | 80 µM (inactive) | 44.4 µM (inactive) | > 100 µM (inactive) | 54.2 µM (inactive) | > 100 µM (inactive) | > 100 µM (inactive) | > 100 µM (inactive) | 41.5 µM (inactive) | > 100 µM (inactive) | 
5 | CNC(C)C(O)c1ccc2oc3cc(=O)c4ccccc4c-3nc2c1 (stereo unspecified) | 40.1 µM (inactive) | 6.25 µM (inactive) | 1.97 µM (inactive) | 9.84 µM (inactive) | 14.4 µM (inactive) | 13.3 µM (inactive) | 4.83 | 24 µM (inactive) | 11.9 µM (inactive) | 19.4 µM (inactive) | 6.35 µM (inactive) | 7.76 µM (inactive) | 11.5 µM (inactive) | 38.7 µM (inactive) | 2.48 µM (inactive) | 4.34 µM (inactive) | 31.6 µM (inactive) | 
6 | CCOC(=O)/C=C(\N=P(c1ccccc1)(c1ccccc1)c1ccccc1)C(F)(F)C(F)(F)C(F)(F)C(F)(F)C(F)(F)F | > 100 µM (inactive) | 47.8 µM (inactive) | > 100 µM (inactive) | > 100 µM (inactive) | > 100 µM (inactive) |  | > 100 | 0.0675 µM (active) | > 100 µM (inactive) | > 100 µM (inactive) | > 100 µM (inactive) | > 100 µM (inactive) | > 100 µM (inactive) | > 100 µM (inactive) | > 100 µM (inactive) | > 100 µM (inactive) | > 100 µM (inactive) | > 100 µM (inactive)
7 | O=C(/C=C/c1ccc2c(c1)OCO2)NCCc1ccco1 | > 100 µM (inactive) | 53 µM (inactive) | 64.7 µM (inactive) | > 100 µM (inactive) | 57.3 µM (inactive) | 37.9 µM (inactive) |  |  | 34.4 µM (inactive) | 48.9 µM (inactive) | > 100 µM (inactive) | > 100 µM (inactive) | > 100 µM (inactive) | 65.8 µM (inactive) | 23.7 µM (inactive) | > 100 µM (inactive) | 26.5 µM (inactive) | > 100 µM (inactive)
8 | CC(C)c1cc2c(c(O)c1O)[C@@]1(C)CCCC(C)(C)C1=C(O)C2 |  | 1.57 µM (inactive) | 1.23 µM (inactive) | 1.63 µM (inactive) | 0.809 µM (active) | 1.15 µM (inactive) | 1.68 | 1.12 µM (active) | 1.38 µM (inactive) | 1.4 µM (inactive) | 1.46 µM (inactive) | 1.36 µM (inactive) | 1.84 µM (inactive) | 1.91 µM (inactive) | 1.03 µM (active) | 1.51 µM (inactive) | 2.04 µM (inactive) | 1.77 µM (inactive)
9 | CS(=O)(=O)OCC(CCl)(CCl)CCl | > 100 µM (inactive) | > 100 µM (inactive) | > 100 µM (inactive) | > 100 µM (inactive) | > 100 µM (inactive) | > 100 µM (inactive) | > 100 | > 100 µM (inactive) | > 100 µM (inactive) | > 100 µM (inactive) | > 100 µM (inactive) |  | > 100 µM (inactive) | > 100 µM (inactive) | > 100 µM (inactive) | > 100 µM (inactive) | > 100 µM (inactive) | > 100 µM (inactive)
10 | CCOC(=O)CCC(NC(=O)OCc1ccccc1)C(=O)NC(CCC(=O)OCC)C(=O)NC(CCC(=O)OCC)C(=O)NC(CCC(=O)OCC)C(=O)NC(CCC(=O)OCC)C(=O)NC(CCC(=O)OCC)C(=O)NC(CCC(=O)OCC)C(=O)OCC (stereo unspecified) |  | > 100 µM (inactive) | > 100 µM (inactive) |  |  | 43.5 µM (inactive) | > 100 | 84.9 µM (inactive) | 86.9 µM (inactive) | > 100 µM (inactive) | > 100 µM (inactive) | > 100 µM (inactive) | > 100 µM (inactive) | > 100 µM (inactive) | > 100 µM (inactive) | > 100 µM (inactive) | > 100 µM (inactive) | > 100 µM (inactive)
11 | Cc1cc(C)c(/C=C(\C(=C/c2c(C)cc(C)cc2C)[N+](=O)[O-])[N+](=O)[O-])c(C)c1 | > 100 µM (inactive) | > 100 µM (inactive) | > 100 µM (inactive) | > 100 µM (inactive) |  |  |  |  | > 100 µM (inactive) | 32.7 µM (inactive) | > 100 µM (inactive) | > 100 µM (inactive) | > 100 µM (inactive) | > 100 µM (inactive) | 86.5 µM (inactive) | > 100 µM (inactive) | 78.9 µM (inactive) | > 100 µM (inactive)
12 | CC(=O)Oc1ccc(-c2cc3ccccc3oc2=O)cc1 |  | > 100 µM (inactive) | > 100 µM (inactive) | 18.7 µM (inactive) | > 100 µM (inactive) | 21.8 µM (inactive) | > 100 | 38.9 µM (inactive) | 6.27 µM (inactive) | 45.6 µM (inactive) | > 100 µM (inactive) | > 100 µM (inactive) | > 100 µM (inactive) | > 100 µM (inactive) |  | > 100 µM (inactive) | 52.8 µM (inactive) | > 100 µM (inactive)
13 | CCCCN(CCCC)C1=Nc2ccccc2-n2c(nnc2C(=O)OCC)C1 | 68.4 µM (inactive) | 38.3 µM (inactive) | 38.5 µM (inactive) | 29.4 µM (inactive) | 39.2 µM (inactive) | > 100 µM (inactive) |  |  | 37.2 µM (inactive) | 27 µM (inactive) | 58.3 µM (inactive) |  | 82.2 µM (inactive) | 38.7 µM (inactive) | 15.1 µM (inactive) |  | 10.4 µM (inactive) | 
14 | CC1=C(C(=O)OCCO[N+](=O)[O-])C(c2ccccc2C(F)(F)F)C(C(=O)OC(C)C)=C(C)N1 (stereo unspecified) | 39.6 µM (inactive) | 25.7 µM (inactive) | 16.6 µM (inactive) | 8.63 µM (inactive) | 14.3 µM (inactive) | 16.9 µM (inactive) | 12.2 | 24.1 µM (inactive) | 10.5 µM (inactive) | 4.7 µM (inactive) | 30.1 µM (inactive) | 13.5 µM (inactive) | 16.6 µM (inactive) | 18.1 µM (inactive) | 10 µM (inactive) | 14.6 µM (inactive) | 19.8 µM (inactive) | 
15 | Fc1ccc(C(OCCN2CC3CC2CN3)c2ccc(F)cc2)cc1 (stereo unspecified) | > 100 µM (inactive) | > 100 µM (inactive) | 23.1 µM (inactive) | 39.6 µM (inactive) | 97.9 µM (inactive) | 47.3 µM (inactive) | 60.5 | 44.9 µM (inactive) | > 100 µM (inactive) | 43.1 µM (inactive) | > 100 µM (inactive) | > 100 µM (inactive) | 21.8 µM (inactive) | 32.8 µM (inactive) | 16.4 µM (inactive) | 48.5 µM (inactive) | 35.2 µM (inactive) | 
16 | O=C(/N=N/c1ccc(Br)cc1)NNc1ccc(Br)cc1 | 29 µM (inactive) |  | 19.8 µM (inactive) | 17.7 µM (inactive) | 20 µM (inactive) | 16.2 µM (inactive) | 19.4 | 44 µM (inactive) | 16.8 µM (inactive) | 11.8 µM (inactive) |  | > 10 µM (inactive) | 26.3 µM (inactive) |  | 13.9 µM (inactive) | 17.5 µM (inactive) | 29.8 µM (inactive) | 24.2 µM (inactive)
17 | O=c1[nH]nc(NNc2ccccc2)c2nnn(C3CCCCC3)c12 |  | > 100 µM (inactive) | > 100 µM (inactive) | > 100 µM (inactive) | > 100 µM (inactive) |  | 96.2 |  | > 100 µM (inactive) | > 100 µM (inactive) |  | > 100 µM (inactive) | > 100 µM (inactive) | > 100 µM (inactive) | > 100 µM (inactive) | > 100 µM (inactive) |  | > 100 µM (inactive)
